Among the data in a melting point compilation (Tetko et al.; mined from patent text by program, amines drawn as free bases though some values may be those of a salt) are melting point values, retold here.

`CCCC/C=C\CCCCCCCC(=O)Nc1nc(CC(=O)O)cs1` displayed a melting point of 110 to 111 °C. Regarding `CCc1ccc2c(c1)CCC21CCc2cc(CC)ccc21`, the melting point fell in the range of 236 to 239 °C.

On to `Cc1c(NC(=O)c2ccc(OCC3CC3)cc2)ccc2cc(CNCC(C)(C)O)n(C)c12`, for which the melting point was 180 °C. `COc1cc2ncc(C#N)c(Nc3cccc(NC(C)=O)c3)c2cc1OC` showed a melting point of 147 to 150 °C. In the case of `CCOC(=O)CC1(S(N)(=O)=O)c2cc(F)ccc2-c2ccc(F)cc21`, the melting point is 215 to 217 °C.

The compound `CC1(Br)C(Br)=CC(O)=C(Br)C1Br` (stereo unspecified) came in with a melting point of 195 to 196 °C. In the case of `NS(=O)(=O)c1ccc(-n2nc(CCNC(=O)Nc3cccc(C(F)(F)F)c3)cc2-c2ccccc2)cc1`, the melting point lay within 122 to 125 °C. With `CCS(=O)(=O)N1C[C@H](C)N(C(=O)[C@@](C)(O)C(F)(F)F)C[C@H]1C` the figure was 142 to 144 °C. With `O=C(O)C[C@@H](c1ccccc1)c1c[nH]c2cc(OCCCNc3ccccn3)ccc12` the figure was 137 °C. With `CC(=O)c1ccc(C(=O)N2Cc3ccnn3Cc3ccccc32)cc1` the figure was 201 to 210 °C.

The compound `Cc1nc2ccc3c(c2o1)C(CCNC(=O)c1ccccc1)CC3` (stereo unspecified) showed a melting point of 73 to 76 °C. Regarding `COC(=O)COc1ccc(-c2c3ccccc3cc3sc4cc(OCC(=O)OC)ccc4c23)cc1`, the melting point was in the range of 152 to 154 °C.

The compound `O=C(c1ccccc1)c1ccc(O)c2ncccc12` returned a melting point of 115 to 116 °C. Compound `CC(C)(C)OC(=O)CCc1ccnc(-c2nc(=O)c3ccc(Cl)cc3s2)c1` displayed a melting point of 152 °C.

In the case of `CCN(CC)c1ccc(Nc2nc(N)c(C(=O)c3ccccc3[N+](=O)[O-])s2)cc1`, the melting point lay within 202 to 205 °C.

In turn, `COc1ccc(C2OCCN2CCNc2ccc(NCCN3CCOC3c3ccc(OC)cc3OC)c3c2C(=O)c2c(O)ccc(O)c2C3=O)c(OC)c1` (stereo unspecified) gave a melting point of 181 to 185 °C. Turning to `O=C(CBr)Nc1ccc(F)cc1C(=O)O`, the melting point fell in the range of 191 to 192 °C. Consider `CCOC(=O)C[C@H](NC(=O)/C=C/Sc1ccccc1)C(=O)OCC`, for which the melting point fell in the range of 100 to 102 °C. With `Cn1cc(CCl)c(=O)c2ccc(F)cc21` the figure was 169 to 171 °C; with `O=S(=O)(NCCCCCCCCCCOc1ccc(-n2ccnc2)cc1)c1ccc2ccccc2c1`, 112 to 115 °C. `ClCC1CCN(C(c2ccccc2)c2ccccc2)CC1` came in with a melting point of 73 to 75 °C.

Compound `CCCCOC1c2ccccc2C(=O)N(CC2CC2)C1(/C=C/C(N)=O)CNC(=O)OC(C)(C)C` (stereo unspecified) had a melting point of 198 to 199 °C. With `CCC(=O)C1C(=O)CC(C#N)CC1=O` (stereo unspecified) the figure was 70 to 74 °C; with `CCOC(=O)CNS(=O)(=O)c1sccc1C=O`, 74 to 76 °C. For `CCOc1nn(C(=O)NS(=O)(=O)c2c(C(=O)OC)csc2C)c(=O)n1C`, the melting point turned out to be 163 °C. In the case of `O=C(Nc1ccc(C(=O)N2Cc3ccc(C(=O)C(Cl)(Cl)Cl)n3Cc3ccccc32)cc1)c1ccccc1C(F)(F)F`, the melting point lay within 219 to 221 °C. Consider `COc1ccc([N+](=O)[O-])cc1CN1CCC(=O)C(C(c2ccccc2)c2ccccc2)C1` (stereo unspecified), for which the melting point is 119 to 120 °C. Take `CC(C)c1cccc(C(C)C)c1NC(=O)NC1COc2ccccc2C1` (stereo unspecified): the melting point lay within 186 to 188 °C. Consider `O=S1(=O)c2cccc3cccc(c23)N1CCCN1CC=C(c2ccc(Cl)cc2)CC1`, for which the melting point was 111 °C.

`Nc1ccc(Sc2cc(F)cc(F)c2)c(Cl)c1` returned a melting point of 156 to 158 °C.

On to `CCOC(=O)c1[nH]c2cc(-c3ccccc3)ccc2c1N`, for which the melting point is 181 to 183 °C. With `O=C(Nc1ccccc1)c1ccc(Nc2ccccc2)nc1` the figure was 264 to 266 °C; with `COCc1ccoc1-c1cc(-n2c(N)nc3ccccc32)ccc1C`, 174 to 176 °C; with `C=Cc1ccc(ON2C(=O)c3ccccc3C2=O)cc1`, 129 to 131 °C.

In turn, `CC(=O)OCC1OC(n2c(Cl)nc3ccc(Br)cc32)C(OC(C)=O)C1OC(C)=O` (stereo unspecified) came in with a melting point of 121 to 122 °C.

`COc1ccc2c(Oc3ccc(OCCN4CCCCC4)cc3)c(-c3cccc(O)c3)ccc2c1` yielded a melting point of 170 to 171 °C.

On to `N#CCc1cccc2c(-c3ccccc3)onc12`, for which the melting point was 125 to 138 °C. In the case of `COc1cc(OC)c(-c2cccs2)cc1C#CC(=O)c1ccc(C(=O)O)cc1`, the melting point was 220 °C. `O=C(Nc1ccc2cc(CN3CCCC3)cnc2c1)N1CCC(c2ccc(Cl)cc2)CC1`: the melting point fell in the range of 249 to 251 °C. `CCOCc1cc2c(N=C=S)cccc2cn1` registered a melting point of 66 °C.

`COc1ccc(Cn2c(C)cc3cnnc(Cl)c32)cc1` returned a melting point of 126 to 128 °C. In turn, `C=Cc1cc(C)cc(C)c1CC(=O)N(C)C1(C#N)CCN(OC)CC1` gave a melting point of 148 to 151 °C.

For the compound `CC(=O)SCCC(=O)Oc1ccc([N+](=O)[O-])cc1`, the melting point was 71 to 73 °C. With `N#Cc1c[nH]c2ccc([N+](=O)[O-])cc12` the figure was 186 to 190 °C; with `CC(Cl)OC(=O)C=Cc1cc(N=C=O)ccc1Cl` (stereo unspecified), 48 to 50 °C. In the case of `CC(C)Oc1ccc(CCCCC2OC(=O)NC2=O)cc1` (stereo unspecified), the melting point fell in the range of 81 to 82 °C.

The compound `CN1C(=O)C(C)(C)N=C(c2ccccc2F)c2c1cc(Br)c(N)c2Br` came in with a melting point of 202 °C. On to `COc1cc(/C=C2/C(=O)OC[C@H]2Cc2cc(OC)c(OCc3ccc([N+](=O)[O-])cc3)c(OCc3ccc([N+](=O)[O-])cc3)c2)cc(OC)c1OC`, for which the melting point was in the range of 171 to 172 °C. With `O=[N+]([O-])c1cccc(Nc2nccc(Sc3cccc(Br)c3)n2)c1` the figure was 208 to 209 °C. Consider `CC1COCC(C)N1c1ccc(-c2nc(C(=O)Nc3nccs3)c(-c3ccc(Cl)cc3)[nH]2)cc1` (stereo unspecified), for which the melting point is above 250 °C. The compound `CCOC(=O)C(=O)Nc1cc2c3c(cccc3c1)C(=O)OC2=O` registered a melting point of 275 to 276 °C. With `O=C(c1ccc(F)c(F)c1)N1CCCC(c2noc(-c3ccc[nH]3)n2)C1` (stereo unspecified), the melting point came to 168 °C. With `Cc1c(-c2cc(C#N)ccc2F)sc2nc(N)[nH]c(=O)c12`, the melting point lay in the range of 332 to 336 °C. With `O=[N+]([O-])c1ccc(Oc2ccc3c(c2)Nc2ccccc2S3)cc1` the figure was 210 to 211 °C; with `CCCCCCN(CC(=O)O)CC(=O)O`, 130 to 131 °C.

`CCC(C(=O)c1ccc(Cl)cc1)n1ncn(-c2ccc(N3CCN(c4ccc(OC)cc4)CC3)nc2)c1=O` (stereo unspecified) showed a melting point of 142 °C. Consider `O=C(CS)Nc1ccc(C(=O)NCCO)cc1`, for which the melting point fell in the range of 184 to 186 °C.

On to `CCCc1cc(C=O)c(O)cc1O`, for which the melting point fell in the range of 92.8 to 93.6 °C. As to `CC(C)(C)OC(=O)NCOc1ccccc1C(=O)OCC#N`, the melting point is 144 to 146 °C. `O=C(c1ccc2nc(C3CC3)n(Cc3ccccc3Cl)c2c1)N1CCOCC1` showed a melting point of 193 to 195 °C. With `NS(=O)(=O)c1cccc(NC(=O)c2cnn3c(C(F)F)cc(-c4ccc(Cl)cc4)nc23)c1` the figure was 278 °C; with `CS(=O)(=O)c1ccc(-c2[nH]c3ccccc3c2-c2ccccc2)cc1`, 221 to 222 °C; with `O=S(=O)(Nc1cnc(-n2cnnn2)nc1NCc1ccccc1)c1ccc(Br)cc1`, 184 °C. `O=C(O)c1ccccc1Sc1ccc(C(O)=NCc2ccccc2)c(C(=O)O)c1` showed a melting point of 289 to 294 °C. Turning to `Cc1[nH]c(=O)[nH]c(=O)c1N1CCN(Cc2ccccc2)CC1`, the melting point turned out to be 263 °C. Consider `COc1ccc(CN(C)CCc2ccc(NC(=O)c3cccc4c(=O)c5cc(F)ccc5sc34)cc2)cc1OC`, for which the melting point stood at 205 °C. As for `CCCc1c(C(=O)C(C)C)c2ccc(C(N)=O)cc2n1Cc1ccccc1Cl`, the melting point lay in the range of 85 to 86 °C. In turn, `CSc1cc(C(C)C)c(NC(=O)C2c3ccccc3COc3ccc(Br)cc32)c(C(C)C)c1` (stereo unspecified) had a melting point of 171 to 172 °C. With `N#Cc1c(N)nc2ccc([N+](=O)[O-])cc2c1O` the figure was above 360 °C; with `CC(C)(C)NS(=O)(=O)c1cccc2c1SC(C)(C)C2`, 103 to 105 °C. Turning to `CC1(C)[C@@H](CN2CCCS2(=O)=O)CC[C@@]1(C)NCC(=O)N1C[C@@H](F)C[C@H]1C#N`, the melting point was 126 to 128 °C. Compound `COc1ccc(-c2c(-c3ccccc3)nn3ccccc23)nn1` came in with a melting point of 203 to 205 °C.

Turning to `O=C(NCC1CC(=O)N(Cc2ccccc2)C1)Nc1ccc(Cl)cc1` (stereo unspecified), the melting point lay in the range of 139 to 140 °C. `COc1ccc(N2CCN(c3c(C)c(C)c4c(c3C)C(C)(O)C(C)(C)O4)CC2)cc1` (stereo unspecified) returned a melting point of 139 to 141 °C. In turn, `O=C(Cc1ccccc1)N[C@H](Cc1ccc(C(F)(F)F)cc1)[C@@H](O)c1ccc(F)cc1` (racemic) gave a melting point of 173 to 174 °C. `NC(C=Cc1ccc(Cl)cc1)=NO` yielded a melting point of 102 to 104 °C. Consider `CSC(CC(CCCl)C(=O)c1ccccc1)C(N)C(N)=O` (stereo unspecified), for which the melting point came to 174 °C.

In turn, `O=c1[nH]c2ncc(-c3ccc(O)cc3)nc2n1CC1CCCCC1` gave a melting point of 302 to 303 °C. For `O=c1oc2ccccc2c(O)c1C1CC(c2ccc(OCc3ccc(-c4ccc(-c5ccccc5)cc4)cc3)cc2)Cc2ccccc21` (stereo unspecified), the melting point is 245 to 248 °C. On to `COc1cccc(-c2ccc3cc(OC)ccc3c2Oc2ccc(O)cc2)c1`, for which the melting point was in the range of 125 to 126 °C. With `O=C1CC(C(=O)C(F)(F)F)Cc2ccccc21` (stereo unspecified) the figure was 48 to 49 °C; with `CN(C)Cc1ccc(CNC(=O)C2Cc3ccccc3N2S(=O)(=O)c2ccc(-c3cccc(C(F)(F)F)c3)cc2)cc1` (stereo unspecified), 70 °C; with `c1cc2c3c(c[nH]c3c1)CC1NCCCC21` (stereo unspecified), 170 to 173 °C. With `CC(C)(C)OC(=O)Nc1ccccc1C1Cc2ccccc2N1C(=O)OC(C)(C)C` (stereo unspecified) the figure was 148 to 150 °C; with `CC(=O)COc1cc(C)c(Br)c(C)c1Cc1ccc(C(C)C)cc1`, 93 to 94 °C. With `CN(C)c1ccc(NC(=O)Cn2c(-c3ccc(Cl)cc3)nc3cccnc32)cc1` the figure was 245 to 246 °C.
